In ChEMBL document CHEMBL1156581, “Polychlorinated compounds with PPAR-gamma agonistic effect from the medicinal fungus Phellinus ribis” (Bioorg Med Chem Lett, 2008):
Calls of active or inactive are those of the source. No cut-off for these calls is given here.

Columns and labels:
[1] = molecular target: T1, Peroxisome proliferator-activated receptor gamma (Homo sapiens) (UniProt P37231); experiment: Agonist activity at PPARgamma expressed in mouse NIH3T3 cells assessed as maximum activation at 10 uM after 16 hrs by reporter gene assay; assay type: functional, cell-based
T1 sequence (whole entry): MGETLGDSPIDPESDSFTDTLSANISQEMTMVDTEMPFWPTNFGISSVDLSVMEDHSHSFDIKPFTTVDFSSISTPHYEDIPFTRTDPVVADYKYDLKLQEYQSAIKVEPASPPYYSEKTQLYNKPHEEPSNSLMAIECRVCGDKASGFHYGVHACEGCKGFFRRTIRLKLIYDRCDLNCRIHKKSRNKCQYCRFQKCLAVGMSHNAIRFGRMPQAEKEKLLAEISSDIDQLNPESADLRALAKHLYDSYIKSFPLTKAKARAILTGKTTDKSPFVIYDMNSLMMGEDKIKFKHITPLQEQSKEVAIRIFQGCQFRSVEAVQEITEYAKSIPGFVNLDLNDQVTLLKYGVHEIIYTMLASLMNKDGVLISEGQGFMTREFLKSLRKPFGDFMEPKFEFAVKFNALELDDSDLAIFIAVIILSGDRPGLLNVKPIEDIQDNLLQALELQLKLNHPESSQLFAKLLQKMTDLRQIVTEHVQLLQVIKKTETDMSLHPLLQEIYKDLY

Bacillus subtilis = experiment: Antimicrobial activity against Bacillus subtilis; assay type: functional, organism-based
Staphylococcus aureus = experiment: Antimicrobial activity against Staphylococcus aureus; assay type: functional, organism-based
Escherichia coli = experiment: Antimicrobial activity against Escherichia coli; assay type: functional, organism-based
[2] = molecular target: T1, Peroxisome proliferator-activated receptor gamma (Homo sapiens); experiment: Agonist activity at PPARgamma expressed in mouse NIH3T3 cells assessed as maximum activation at 100 uM after 16 hrs by reporter gene assay; assay type: functional, cell-based

fold change (FC) [1]	fold change (FC) [2]	Structure (SMILES)	Activity (Bacillus subtilis)	Activity (Staphylococcus aureus)	Activity (Escherichia coli)
2		COc1c(Cl)c(Cl)c(Oc2c(O)c(Cl)c(OC)c(Cl)c2Oc2c(Cl)c(Cl)c(OC)c(Cl)c2Cl)c(Cl)c1Cl	inactive	inactive	inactive
	8.4	COc1c(Cl)c(Cl)c(O)c(Cl)c1Cl			
8.5		COc1c(Cl)c(Cl)c(Oc2c(Cl)c(OC)c(Cl)c(Cl)c2Oc2c(O)c(Cl)c(Cl)c(OC)c2Cl)c(Cl)c1Cl	inactive	inactive	inactive
2		COc1c(Cl)c(Cl)c(Oc2c(O)c(Oc3c(Cl)c(Cl)c(OC)c(Cl)c3Cl)c(Cl)c(OC)c2Cl)c(Cl)c1Cl	inactive	inactive	inactive
